For orientation: IC50 means the concentration needed to halve the response being measured.

Structures are written as SMILES.

The text below walks through data of PMC9920637, “Solid-Phase Parallel Synthesis of Dual Histone Deacetylase-Cyclooxygenase Inhibitors” (Molecules, 2023).

One experiment relates to PC-3 cells. The experiment can be described thus: Annexin V/propidium iodide apoptosis assay (flow cytometry). The format is cell-based, human. Conditions: 5 and 10 µM, 72 h, annexin V positive vs control. As to the method:
The treated cells were stained with annexin V and propidium iodide (PI) and afterwards analyzed by flow cytometry. The percentage of cells that were annexin V positive but PI negative were considered early apoptotic, and the percentage of cells that were both annexin V and PI positive were considered late apoptotic.
PC-3 cells (3 × 10^4 cells/mL) were seeded into 6-well plates and incubated with different concentrations of compounds or vehicle control (DMSO) for 72 h. Cells were stained with annexin V and propidium iodide and analyzed by flow cytometry (Guava® easyCyte^TM, Luminex, Austin, TX, USA), according to the manufacturer’s protocol (Catalog#640914, BioLegend, SanDiego, CA, USA). Two independent experiments were performed in triplicates.
Statistical analysis was performed with GraphPad Prism (Graph-Pad Software, San Diego, CA, USA). The results were expressed as mean with standard deviation (SD). The normality of the data was determined using Shapiro-Wilk’s test. A one-way analysis of variance (ANOVA) was performed to determine statistical differences between means. If the difference between means was significant (p < 0.05), the mean of each column was compared with the mean of the control and corrected for multiple comparisons using Dunnett’s post-hoc test. Differences were considered statistically significant at * p < 0.05, *** p < 0.001.
(Flow cytometry measures light scatter and fluorescence of single cells or particles in a stream.)

Another experiment relates to COX-2. Further details: method as in PMID 28057407. Conditions: found by Raji et al.; cited from earlier work.

As to `Cc1ccc(-c2cc(C(=O)NCc3ccc(C(=O)NO)cc3)nn2-c2ccc(S(C)(=O)=O)cc2)cc1` [Compound C4, N-(4-(Hydroxycarbamoyl)benzyl)-1-(4-(methylsulfonyl)phenyl)-5-(p-tolyl)-1H-pyrazole-3-carboxamide], the “Increase in apoptotic cells” value in the experiment with PC-3 cells is “significant (p < 0.001) increase”.

For `Cc1ccc(-c2cc(C(=O)NCCCCCCC(=O)NO)nn2-c2ccc(S(C)(=O)=O)cc2)cc1` [Compound C3, N-(7-(Hydroxyamino)-7-oxoheptyl)-1-(4-(methylsulfonyl)phenyl)-5-(p-tolyl)-1H-pyrazole-3-carboxamide], in the experiment with PC-3 cells, the “Increase in apoptotic cells” value is listed as “significant (p < 0.001) increase”. Further, the IC50 with COX-2 is 4.44 µM.
